{"source": "paper PMC4348036", "about": "“Structural and Functional Investigation of Flavin Binding Center of the NqrC Subunit of Sodium-Translocating NADH:Quinone Oxidoreductase from Vibrio harveyi” (PLoS ONE, 2015)", "molecular_target": "T1, holoNqrC' (NqrC subunit of Na+-translocating NADH:quinone oxidoreductase, soluble flavin-binding domain) (Vibrio harveyi, UniProt K5TWQ4)", "T1 construct": "soluble truncated NqrC without N-terminal transmembrane helix, residues 33-261, C-terminal 6xHis tag; E. coli, co-expressed with flavin transferase ApbE (plasmids pMshC3 + pdhis3); model covers residues 36-261", "T1 sequence (K5TWQ4 33-261)": "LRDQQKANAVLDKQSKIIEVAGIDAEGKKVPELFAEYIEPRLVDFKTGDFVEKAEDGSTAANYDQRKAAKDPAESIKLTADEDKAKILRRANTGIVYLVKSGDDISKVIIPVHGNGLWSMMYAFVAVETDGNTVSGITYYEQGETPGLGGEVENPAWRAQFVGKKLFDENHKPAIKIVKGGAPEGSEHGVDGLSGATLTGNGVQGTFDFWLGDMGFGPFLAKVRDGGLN", "assay": "X-ray crystallography, […] Å", "conditions": "covalent; phosphoester bond to Thr229, attached in vivo by flavin transferase ApbE; pH 6.8", "data": [{"compound": "Cc1cc2nc3c(=O)[nH]c(=O)nc-3n(C[C@H](O)[C@H](O)[C@H](O)COP(=O)(O)O)c2cc1C", "note": "[FMN]", "values": [{"measurement": "X-ray crystallography, 1.56 Å", "value": "The electron density of Thr229 side chain unambiguously demonstrates its flavinylation."}]}]}
